Results reported in patent US9707239B2, “Compounds that modulate oxidative stress” (vTv Therapeutics LLC, priority 2011, dated 2017).
“Also recorded” adds a separate entry of the source.

Tests used:
human Bach1 = assay: MARE controlled luciferase reporter gene assay in HepG2 cells with or without Bach1 expression; format: cell-based; conditions: transient transfection, with or without Bach1 expressing plasmid, FIG. 7
Description: The ability of Compound 13 to act in a manner similar to CoPP provides evidence for the hypothesis that Bach1 activity is being modulated by the compounds. […] To that end, expression vectors were prepared which contained the HMOX1 mARE promoter element recognized by both Bach1 and Nrf2. This element was placed in control of the reporter gene luciferase. Under conditions of transient transfection of HepG2 cells, the reporter has a low level of basal activity due to the relative ratio of Bach1 and Nrf2 found in the cell. Co-transfection with a Bach1 expressing plasmid leads to repression of luciferase activity. Therefore, one can test whether the compounds can increase the level of luciferase in the cells, thus overcoming Bach1 repression. […] Thus, the tested compound is able to overcome suppression by additional Bach1.

HMOX1 [1] = assay: HMOX1 induction in NHLF cells in the cisplatin cytoprotection model; format: cell-based, human; conditions: compound 24 hours prior to cisplatin, FIG. 8
Description: (§1) A key outcome of Bach1 derepression and Nrf2 activation are the induction of cytoprotective genes. A method to test such cytoprotection is to assess the ability of a compound to protect normal human cells such as lung fibroblasts from toxicity due to cisplatin exposure. A model of cellular cytoprotection was established whereby normal human lung fibroblasts were treated with Bach1 modulators and then subsequently exposed to cisplatin. NHLF cells are very sensitive to cisplatin exposure; following a dose of 200 uM cisplatin, >90% of NHLF cells are propidium iodide positive, a measure of cell death.

NHLF cells [2] = assay: Cytoprotection of cisplatin (CDDP)-treated NHLF cells (propidium iodide staining); format: cell-based; conditions: NHLF cells, compound 24 hours prior to cisplatin exposure, FIG. 8
Description: as §1

[3] = system: human bone marrow mesenchymal stem cells (BMMSC); assay: Differentiation of bone marrow mesenchymal stem cells to adipocytes (Oil Red staining); format: cell-based; conditions: high glucose, 21 days continuous exposure, FIG. 10
Excerpt: In this assay, the cells are continuously exposed to compound for 21 days and then tested for the presence of oil-Red staining lipid droplets.

HMOX1 [4] = assay: HMOX1 induction in human bone marrow-derived mesenchymal stem cells (Western blotting); format: cell-based; conditions: BMMSC, 3 and 10 days of exposure, FIG. 9
Description: Previous work has shown that HMOX1 expression can suppress the differentiation of human bone marrow mesenchymal stem cells (BMMSC) into adipocytes, a process termed adipogenesis [Li et al., Diabetes 57(6):1526-1535 (2008)]. As such, we tested Bach1 modulators for the ability to suppress BMMSC differentiation into adipocytes in the presence of high glucose containing media. Two Bach1 modulators and a null compound were tested to determine the ability of the compounds to induce HMOX1 after 3 and 10 days of exposure to compound.

Nrf2 = assay: HMOX1 mRNA induction after Nrf2 siRNA silencing; format: cell-based, human; conditions: NHLF cells, 50 nM siRNA 48 hours, FIG. 5
Description: Small interfering RNA targeting Nrf-2 (cat# SI03246614) or KEAP-1 (cat# SI03246439) were obtained from Qiagen at 20 nmol/tube. Negative control siRNA (cat#1027280) was also obtained from Qiagen. Lyophilized siRNA in each tube was resuspended with 1 ml of the provided siRNA Suspension Buffer to make a stock solution of 20 μM and tubes were heated at 90° C. for one minute and then at 37° C. for one hour prior to initial use.
Normal human lung fibroblasts were plated at 5000 cells/well in 96-well plates and allowed to attach. Prior to experiments, well s containing the cells were refreshed with 30 μl of complete growth medium. For each siRNA type, a 4× concentration (200 nM) of siRNA was prepared by adding 11 μl of siRNA stock into 1.1 ml of serum-free medium containing 9 μl/ml of SILENTFECT Lipid Reagent (BioRad, cat#170-3361). This solution was incubated at room temperature for 20 minutes prior to adding 10 μl into each well for a final concentration of 50 nM siRNA. Cells were incubated with siRNA for 48 hours, after which they were treated with compound for either 5 hours (QuantiGene RNA assay) or 15 hours (protein immunofluorescence assay).
The predicted response profile is that silencing of Nrf2 should reduce the amount of HMOX1 induction by Compound 13 and other HMOX1 inducers that are electrophiles or reactive compounds. To that end, Compound 13 and other tool compounds were tested in cells that were treated with siRNA directed to Nrf2. Following gene silencing with specific siRNA or control siRNA, the ability of tool compounds to induce HMOX1 mRNA was determined.

NHLF cells [5] = assay: ROS measurements (H2DCF-DA imaging); format: cell-based, human; conditions: 1 hr, cell-by-cell imaging, FIG. 3A/3B
Description: Secondary growth of NHLF cells were used for all assays. Cells were cultured as above. Cells were plated into 384-well BD-Optilux Plates at 2,000 cells/well and cultured overnight at 37° C. and 5% CO2. The following day, cell were washed and 2,7-dihydrodichlorofluorescin diacetate (H2DCF-DA), 10 μM ferric ammonium citrate (FAC), and Hoechst stain were added to cells for 30 min. The cells were washed once with PBS to remove any H2DCF-DA not taken up by cells. Test compounds were prepared in FBM-2 media at the desired concentrations. The plates and stain-treated cells were incubated with test compounds for 1 hr at 37° C. and 5% CO2. Following the incubation period, ROS generation was determined by imaging the cells on a GE INcell 1000 imager (Hoechst Ex. 360 Em. 535; H2DCF-DA 488 Ex. 480 Em. 535). ROS levels were determined and quantified using GE IN Cell Analyzer Software.
In addition to gene profiling, the requirement for ROS generation or chemical reactivity was tested. ROS generation was measured using an automated imaging technique. Compound 13 as well as two other compounds that were found in the screening set were tested in this experiment. Untreated NHLF cells, NHLF cells treated with the HMOX1 inducer CoPP (a negative control), and NHLF cells treated with curcumin or celestrol (positive controls) were included as controls. […] Further experiments were also conducted on chemical derivatives of Compound 13. In those experiments, all compounds tested were found not to induce an elevation of ROS levels in the cell (FIG. 3B). Thus, Compound 13 and related compounds represent a class of agents that elevate HMOX1 production without elevating ROS production.

HMOX1 [6] = assay: Effect of NAC on compound induction of HMOX gene expression; format: cell-based, human; conditions: NHLF cells pretreated with 5 mM NAC 1 hr, compound 6 h, FIG. 4
Description: NHLF cells were grown to 80% confluency and harvested by washing once with HEPES and then trypsinizing. Equal numbers (7×10^4 cells per well) of NHLF cells were plated in 96 well tissue culture (Corning) plates. Cells were incubated overnight in FGM-2 medium prior to exposure to compound. Cells were pretreated with 5 mM N-acetyl cysteine for 1 hr. Cells were treated with either DMSO or compound for 6 h. Preparation of cell lysates was carried out according to Quantigene Reagent system 2.0 protocol (Panomics). Heme oxygenase mRNA induction was detected from cell lysate using the Quantigene Plex 2.0 Assay Kit (Panomics) on the Luminex platform (BIO-RAD). Expression of GAPDH mRNA was used as the internal control for the Quantigen Plex 2.0 Assay. Heme oxygenase data represents the fold change, normalized to control values, above DMSO treated cells.
A further test of the hypothesis that Compound 13 induces HMOX1 with minimal alteration of cellular redox levels or chemical reactivity was carried out by treating cells with N-acetyl cysteine (NAC). This compound acts to restore cellular glutathione levels and thus prevent oxidative stress. The degree to which NAC can suppress HMOX1 induction is an indicator of the amount of chemical reactivity or ROS stress that a compound is imposing on the cell and thus activating phase II gene transcription. […] Coupled with the data shown in FIG. 3, it is concluded that Compound 13 induces HMOX1 with minimal elevation of ROS or NAC-sensitive chemical reactivity.

Structure (SMILES)	luciferase activity of HMOX1 mARE reporter (human Bach1)	HMOX1 induction (HMOX1 [1])	protection against cisplatin toxicity (NHLF cells [2])	inhibition of adipogenesis (Oil Red staining) [3]	HMOX1 induction by Western blotting (HMOX1 [4])	HMOX1 mRNA induction with siRNA directed to Nrf2 (Nrf2)	ROS production (in words) (NHLF cells [5])	effect of N-acetyl cysteine (NAC) on HMOX1 induction (HMOX1 [6])
CNC(=O)c1ccc2[nH]c(Nc3nc4ccc(OC(F)(F)F)cc4s3)nc2c1 [Compound 7, 2-(6-Trifluoromethoxy-benzothiazol-2-ylamino)-1H-benzoimidazole-5-carboxylic acid methylamide]	able to induce luciferase activity in the presence or absence of Bach1 protein expression; also recorded: can overcome this repression	–	–	–	–	–	–	–
CN(C)C(=O)CNC(=O)c1ccc2c(c1)nc(Nc1nc3ccc(OC(F)(F)F)cc3s1)n2C [Compound 9, 1-Methyl-2-(6-trifluoromethoxy-benzothiazol-2-ylamino)-1H-benzoimidazole-5-carboxylic acid dimethylcarbamoylmethyl-amide]	–	induced HMOX1	near-total cellular protection; also recorded: protect the cells from CDDP-mediated toxicity	suppress Oil-O red staining; also recorded: inhibited stem cell differentiation	induced HMOX1	–	–	–
Cn1c(Nc2nc3ccc(OC(F)(F)F)cc3s2)nc2cc(C(=O)NCCOCCO)ccc21 [Compound 10, 1-Methyl-2-(6-trifluoromethoxy-benzothiazol-2-ylamino)-1H-benzoimidazole-5-carboxylic acid [2-(2-hydroxy-ethoxy)-ethyl]-amide]	–	induced HMOX1	near-total cellular protection; also recorded: protect the cells from CDDP-mediated toxicity	suppress Oil-O red staining; also recorded: inhibited stem cell differentiation	induced HMOX1	–	–	–
Cn1c(Nc2nc3ccc(Cl)cc3s2)nc2cc(C(=O)NCC(=O)O)ccc21 [Compound 12, {[2-(6-Chloro-benzothiazol-2-ylamino)-1-methyl-1H-benzoimidazole-5-carbonyl]-amino}-acetic acid]	–	inactive HMOX1 inducers; also recorded: did not induce HMOX1	failed to protect NHLF cells against cisplatin toxicity; also recorded: failed to protect cells from CDDP-mediated cytotoxicity	fails to inhibit adipogenesis; also recorded: failed to do so	failed to induce HMOX1	–	–	–
CC(C)(C)N1C(=O)C=C(c2cccc(N(CC(=O)c3ccc(Cl)cc3Cl)C(=O)Cc3ccc(Br)cc3)c2)S1(=O)=O [Compound 14, 2-(4-Bromo-phenyl)-N-[3-(2-tert-butyl-1,1,3-trioxo-2,3-dihydro-1H-isothiazol-5-yl)-phenyl]-N-[2-(2,4-dichloro-phenyl)-2-oxo-ethyl]-acetamide]	–	–	–	–	–	affected by the presence of the siRNA for Nrf2; also recorded: requires Nrf2 for full induction of HMOX1 mRNA	elevated ROS levels to a greater degree than did Compound 13; also recorded: little increase in ROS production	inhibited nearly fully by NAC; also recorded: fully suppressed in the presence of NAC
CC(C)(C)N1C(=O)C=C(c2cccc(-n3cc(-c4ccc(Cl)cc4Cl)nc3Cc3ccc(Br)cc3)c2)S1(=O)=O [Compound 15, 5-{3-[2-(4-Bromo-benzyl)-4-(2,4-dichloro-phenyl)-imidazol-1-yl]-phenyl}-2-tert-butyl-1,1-dioxo-1,2-dihydro-isothiazol-3-one]	–	–	–	–	–	affected by the presence of the siRNA for Nrf2; also recorded: requires Nrf2 for full induction of HMOX1 mRNA	elevated ROS levels to a greater degree than did Compound 13; also recorded: little increase in ROS production	inhibited nearly fully by NAC; also recorded: fully suppressed in the presence of NAC
